Laboratory results from US6737383B1, “Herbicidal oxadiazolidines” (priority 1999, dated 2004).

Experiments:
blackgrass = test: Test B pre/postemergence blackgrass; type: in vivo, Alopecurus myosuroides
Outline: (§1)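 Response is a visual 0-to-10 score relative to untreated plants, where 0 means no effect and 10 means complete control, taken twelve to sixteen days after application. Treatments went onto soil at planting and onto foliage of 1- to 4-leaf plants, using a surfactant-containing non-phytotoxic solvent.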

surinam grass = test: Test B pre/postemergence surinam grass; type: in vivo, Brachiaria decumbens
Outline: as §1

cocklebur = test: Test B pre/postemergence cocklebur; type: in vivo, Xanthium strumarium
Outline: as §1

corn = test: Test B pre/postemergence corn; type: in vivo, Zea mays
Outline: as §1

crabgrass = test: Test B pre/postemergence crabgrass; type: in vivo, Digitaria sanguinalis
Outline: as §1

giant foxtail = test: Test B pre/postemergence giant foxtail; type: in vivo, Setaria faberii
Outline: as §1

rape = test: Test B pre/postemergence rape; type: in vivo, Brassica napus
Outline: as §1

soybean = test: Test B pre/postemergence soybean; type: in vivo, Glycine max
Outline: as §1

sugar beet = test: Test B pre/postemergence sugar beet; type: in vivo, Beta vulgaris
Outline: as §1

velvetleaf = test: Test B pre/postemergence velvetleaf; type: in vivo, Abutilon theophrasti
Outline: as §1

wheat = test: Test B pre/postemergence wheat; type: in vivo, Triticum aestivum
Outline: as §1

purple nutsedge = test: Test B pre/postemergence purple nutsedge; type: in vivo, Cyperus rotundus
Outline: as §1

rice = test: Test B flood test rice; type: in vivo, Oryza sativa
Outline: (§2)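 Each value is a visual injury score relative to controls, with 10 meaning complete control and 0 no effect. Evaluation took place twelve to sixteen days after the 2-leaf-stage plants were treated and kept in the greenhouse.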

smallflower flatsedge = test: Test B flood test smallflower flatsedge; type: in vivo, Cyperus difformis
Outline: as §2

duck salad = test: Test B flood test duck salad; type: in vivo, Heteranthera limosa
Outline: as §2

bamyardgrass = test: Test B flood test barnyardgrass; type: in vivo, Echinochloa crus-galli
Outline: as §2

[1] = Postemergence, Rate 250 g/ha, scale 0 to 10
[2] = Postemergence, Rate 500 g/ha, scale of 0 to 10 where 0 is no effect and 10 is complete control
[3] = Preemergence, Rate 62 g/ha, scale of 0 to 10 where 0 is no effect and 10 is complete control
[4] = Preemergence, Rate 125 g/ha, scale of 0 to 10 where 0 is no effect and 10 is complete control
[5] = Preemergence, Rate 250 g/ha, scale 0 to 10, 0 is no effect, 10 is complete control
[6] = Preemergence, Rate 500 g/ha, scale 0 to 10, 0 is no effect, 10 is complete control
[7] = Rate 62 g/ha, Postemergence, scale 0 to 10 (0 no effect, 10 complete control)
[8] = Rate 125 g/ha, Postemergence, scale 0 to 10, 0 is no effect, 10 is complete control
[9] = Rate 62 g/ha, flood test species, Pre-emergence, visual evaluation after twelve to sixteen days
[10] = Rate 125 g/ha, under heading Pre-emergence, flood test species, visual evaluation after twelve to sixteen days
[11] = Rate 250 g/ha, Pre-emergence (flood test species), scale 0 to 10, 0 is no effect, 10 is complete control
[12] = Rate 500 g/ha, Pre-emergence, flood test species, scale 0 to 10 (0 no effect, 10 complete control)

COC(C)n1c(=O)on(C(=O)N(c2ccccc2)C(C)C)c1=O (stereo not shown) [Compound 441]
0: Blackgrass plant response rating (blackgrass; [1]) | Blackgrass plant response rating (blackgrass; [2]) | Plant response rating, Blackgrass (blackgrass; [3]) | Plant response rating, Blackgrass (blackgrass; [4]) | Blackgrass plant response rating (blackgrass; [5]) | Blackgrass plant response rating (blackgrass; [6]) | Blackgrass plant response rating (blackgrass; [7]) | Blackgrass plant response rating (blackgrass; [8]) | B. signalgrass plant response rating (surinam grass; Postemergence, Rate 250 g/ha, scale 0 to 10, 0 no effect, 10 complete control) | B. signalgrass plant response rating (surinam grass; [2]) | Plant response rating, B. signalgrass (surinam grass; [3]) | Plant response rating, B. signalgrass (surinam grass; [4]) | B. signalgrass plant response rating (surinam grass; [5]) | B. signalgrass plant response rating (surinam grass; [6]) | B. signalgrass plant response rating (surinam grass; [7]) | B. signalgrass plant response rating (surinam grass; [8]) | Cocklebur plant response rating (cocklebur; [1]) | Cocklebur plant response rating (cocklebur; [2]) | Plant response rating, Cocklebur (cocklebur; [3]) | Plant response rating, Cocklebur (cocklebur; [4]) | Cocklebur plant response rating (cocklebur; [5]) | Cocklebur plant response rating (cocklebur; [6]) | Cocklebur plant response rating (cocklebur; [7]) | Cocklebur plant response rating (cocklebur; [8]) | Corn plant response rating (corn; [1]) | Corn plant response rating (corn; [2]) | Plant response rating, Corn (corn; [3]) | Plant response rating, Corn (corn; [4]) | Corn plant response rating (corn; [5]) | Corn plant response rating (corn; [6]) | Corn plant response rating (corn; [7]) | Corn plant response rating (corn; [8]) | Crabgrass plant response rating (crabgrass; [1]) | Crabgrass plant response rating (crabgrass; [2]) | Plant response rating, Crabgrass (crabgrass; [3]) | Plant response rating, Crabgrass (crabgrass; [4]) | Crabgrass plant response rating (crabgrass; [5]) | Crabgrass plant response rating (crabgrass; [6]) | Crabgrass plant response rating (crabgrass; [7]) | Crabgrass plant response rating (crabgrass; [8]) | Giant foxtail plant response rating (giant foxtail; [1]) | Giant foxtail plant response rating (giant foxtail; [2]) | Plant response rating, Giant foxtail (giant foxtail; [3]) | Plant response rating, Giant foxtail (giant foxtail; [4]) | Giant foxtail plant response rating (giant foxtail; [5]) | Giant foxtail plant response rating (giant foxtail; [6]) | Giant foxtail plant response rating (giant foxtail; [7]) | Giant foxtail plant response rating (giant foxtail; [8]) | Rape plant response rating (rape; [1]) | Rape plant response rating (rape; [2]) | Plant response rating, Rape (rape; [3]) | Plant response rating, Rape (rape; [4]) | Rape plant response rating (rape; [5]) | Rape plant response rating (rape; [6]) | Rape plant response rating (rape; [7]) | Rape plant response rating (rape; [8]) | Soybean plant response rating (soybean; [1]) | Soybean plant response rating (soybean; [2]) | Plant response rating, Soybean (soybean; [3]) | Plant response rating, Soybean (soybean; [4]) | Soybean plant response rating (soybean; [5]) | Soybean plant response rating (soybean; [6]) | Soybean plant response rating (soybean; [7]) | Soybean plant response rating (soybean; [8]) | Sugarbeets plant response rating (sugar beet; [1]) | Sugarbeets plant response rating (sugar beet; [2]) | Plant response rating, Sugarbeets (sugar beet; [3]) | Plant response rating, Sugarbeets (sugar beet; [4]) | Sugarbeets plant response rating (sugar beet; [5]) | Sugarbeets plant response rating (sugar beet; [6]) | Sugarbeets plant response rating (sugar beet; [7]) | Sugarbeets plant response rating (sugar beet; [8]) | Velvetleaf plant response rating (velvetleaf; [1]) | Velvetleaf plant response rating (velvetleaf; [2]) | Plant response rating, Velvetleaf (velvetleaf; [3]) | Plant response rating, Velvetleaf (velvetleaf; [4]) | Velvetleaf plant response rating (velvetleaf; [5]) | Velvetleaf plant response rating (velvetleaf; [6]) | Velvetleaf plant response rating (velvetleaf; [7]) | Velvetleaf plant response rating (velvetleaf; [8]) | Wheat plant response rating (wheat; [1]) | Wheat plant response rating (wheat; [2]) | Plant response rating, Wheat (wheat; [3]) | Plant response rating, Wheat (wheat; [4]) | Wheat plant response rating (wheat; [5]) | Wheat plant response rating (wheat; [6]) | Wheat plant response rating (wheat; [7]) | Wheat plant response rating (wheat; [8]) | Nutsedge plant response rating (purple nutsedge; [1]) | Nutsedge plant response rating (purple nutsedge; [2]) | Plant response rating, Nutsedge (purple nutsedge; [3]) | Plant response rating, Nutsedge (purple nutsedge; [4]) | Nutsedge plant response rating (purple nutsedge; [5]) | Nutsedge plant response rating (purple nutsedge; [6]) | Nutsedge plant response rating (purple nutsedge; [7]) | Nutsedge plant response rating (purple nutsedge; [8]) | Plant response rating, Rice (0 to 10 scale, 0 is no effect, 10 is complete control) (rice; [9]) | Rice plant response rating (0 to 10 scale, 0 is no effect, 10 is complete control) (rice; [10]) | Rice plant response rating (rice; [11]) | Rice plant response rating (rice; [12]) | Plant response rating, S. Flatsedge (0 to 10 scale, 0 is no effect, 10 is complete control) (smallflower flatsedge; [9]) | S. Flatsedge plant response rating (0 to 10 scale, 0 is no effect, 10 is complete control) (smallflower flatsedge; [10]) | S. Flatsedge plant response rating (smallflower flatsedge; [11]) | S. Flatsedge plant response rating (smallflower flatsedge; [12]) | Plant response rating, Ducksalad (0 to 10 scale, 0 is no effect, 10 is complete control) (duck salad; [9]) | Ducksalad plant response rating (0 to 10 scale, 0 is no effect, 10 is complete control) (duck salad; [10]) | Ducksalad plant response rating (duck salad; [11]) | Ducksalad plant response rating (duck salad; [12]) | Plant response rating, Barnyardgrass (0 to 10 scale, 0 is no effect, 10 is complete control) (bamyardgrass; [9]) | Barnyardgrass plant response rating (0 to 10 scale, 0 is no effect, 10 is complete control) (bamyardgrass; [10]) | Barnyardgrass plant response rating (bamyardgrass; [11]) | Barnyardgrass plant response rating (bamyardgrass; [12])
